{"source": "patent US20240254119A1", "about": "(THIRD HARMONIC BIO, INC., priority 2022, published 2024)", "key": {"[1]": {"assay": "Caco-2 permeability assay", "type": "in vitro ADME", "details": "human", "experimental": "Exemplary compounds were tested for cell permeability in Caco-2, MDCKII-MDR1 and MDCKII-BCRP cell lines with efflux transporter engagement inferred from the efflux ratios determined. Procedures and results are described below. […] This feature of certain compounds is in part due to efflux transporter engagement. See, for instance, exemplary such compounds included in data tables below.\nThe transport buffer in the study was HBSS with 10.0 mM HEPES at pH 7.40±0.05. Test compound was tested at 2.00 μM bi-directionally in duplicate. Digoxin was tested at 10.0 μM bi-directionally in duplicate, while nadolol and metoprolol were tested at 2.00 μM in A to B direction in duplicate. Final DMSO concentration was adjusted to less than 1%. The plate was incubated for 2 hours in CO2 incubator at 37±1° C., with 5% CO2 at saturated humidity without shaking. And all samples after mixed with acetonitrile containing internal standard were centrifuged at 3200×g for 10 min. For nadolol and metoprolol, 200 μL supernatant solution was diluted with 600 μL ultra-pure water for LC-MS/MS analysis. For digoxin and test compounds, 200 μL supernatant solution was diluted with 200 μL ultra-pure water for LC-MS/MS analysis. Concentrations of test and control compounds in starting solution, donor solution, and receiver solution were quantified by LC-MS/MS methodologies, using peak area ratio of analyte/internal standard.\nAfter transport assay, lucifer yellow rejection assay was applied to determine the Caco-2 cell monolayer integrity.\n[…] And permeation of lucifer yellow through the monolayer was measured to evaluate the cellular integrity.\nThe apparent permeability coefficient Papp (cm/s) was calculated using the equation: Papp=(dCr/dt)×Vr/(A×C0), where dCr/dt is the cumulative concentration of compound in the receiver chamber as a function of time (μM/s); Vr is the solution volume in the receiver chamber (0.075 mL on the apical side, 0.25 mL on the basolateral side); A is the surface area for the transport, i.e. 0.0804 cm^2 for the area of the monolayer; C0 is the initial concentration in the donor chamber (μM).\nThe efflux ratio was calculated using the equation: Efflux Ratio=Papp (BA)/Papp(AB).\nPercent recovery was calculated using the equation: % Solution Recovery=100×[(Vr×Cr)+(Vd×Cd)]/(Vd×C0), where Vd is the volume in the donor chambers (0.075 mL on the apical side, 0.25 mL on the basolateral side); Cd and Cr are the final concentrations of transport compound in donor and receiver chambers, respectively."}, "[2]": {"target": "T1, MDR1 (Homo sapiens, UniProt P08183)", "T1 construct": "host or cells: MDCKII (canine kidney) cells", "T1 sequence (P08183 whole entry)": "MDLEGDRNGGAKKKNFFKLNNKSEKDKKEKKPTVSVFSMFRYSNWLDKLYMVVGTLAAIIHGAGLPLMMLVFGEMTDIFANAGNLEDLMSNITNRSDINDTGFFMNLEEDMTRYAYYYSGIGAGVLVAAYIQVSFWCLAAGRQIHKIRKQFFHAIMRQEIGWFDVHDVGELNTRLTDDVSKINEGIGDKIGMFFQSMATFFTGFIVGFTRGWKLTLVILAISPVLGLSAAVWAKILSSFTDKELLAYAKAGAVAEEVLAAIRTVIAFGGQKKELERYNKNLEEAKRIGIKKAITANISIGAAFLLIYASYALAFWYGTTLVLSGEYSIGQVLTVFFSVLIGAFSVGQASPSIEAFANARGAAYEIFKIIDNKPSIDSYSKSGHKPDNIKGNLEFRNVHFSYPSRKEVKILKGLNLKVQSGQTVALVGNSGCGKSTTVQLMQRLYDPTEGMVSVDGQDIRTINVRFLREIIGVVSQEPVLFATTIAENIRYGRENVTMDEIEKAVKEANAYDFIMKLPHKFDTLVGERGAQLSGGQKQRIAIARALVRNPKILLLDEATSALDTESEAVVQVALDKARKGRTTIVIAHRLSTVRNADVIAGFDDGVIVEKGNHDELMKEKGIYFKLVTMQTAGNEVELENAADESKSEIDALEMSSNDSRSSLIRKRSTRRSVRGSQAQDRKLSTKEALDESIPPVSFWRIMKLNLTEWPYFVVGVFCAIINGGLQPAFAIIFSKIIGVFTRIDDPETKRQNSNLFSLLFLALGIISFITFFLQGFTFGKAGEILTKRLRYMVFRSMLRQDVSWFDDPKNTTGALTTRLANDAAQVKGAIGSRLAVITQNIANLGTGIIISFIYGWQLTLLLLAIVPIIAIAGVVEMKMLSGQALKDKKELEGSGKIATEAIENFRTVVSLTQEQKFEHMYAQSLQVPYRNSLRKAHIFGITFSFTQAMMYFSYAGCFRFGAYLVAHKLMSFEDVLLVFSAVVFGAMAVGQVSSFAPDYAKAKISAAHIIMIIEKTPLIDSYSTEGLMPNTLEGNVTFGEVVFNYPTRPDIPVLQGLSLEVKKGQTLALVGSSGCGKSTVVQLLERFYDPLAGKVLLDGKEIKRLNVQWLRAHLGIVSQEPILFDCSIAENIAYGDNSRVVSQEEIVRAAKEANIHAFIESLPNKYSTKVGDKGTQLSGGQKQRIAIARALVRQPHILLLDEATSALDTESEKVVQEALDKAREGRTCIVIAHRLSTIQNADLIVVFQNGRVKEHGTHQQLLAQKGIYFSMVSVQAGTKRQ", "assay": "Permeability in MDR1-MDCKII cells", "type": "in vitro ADME", "details": "dog, MDCK-MDR1, pH 7.4", "in_short": "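MDR1-MDCKII monolayers grown 4-7 days; compounds 2.00 μM in HBSS/10 mM Hepes pH 7.4, A-to-B and B-to-A in duplicate, 2.5 h at 37 °C. LC-MS/MS quantitation gives Papp and efflux ratio; monolayer integrity checked by lucifer yellow rejection.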"}}}
{"smiles": "Cc1ccc(-c2noc([C@H]3C[C@@H]3F)n2)cc1NC(=O)c1cnc2cc(COCC(C)(C)O)ccn12", "note": "[Compound I-71, N-[5-[5-[(1R,2S)-2-fluorocyclopropyl]-1,2,4-oxadiazol-3-yl]-2-methyl-phenyl]-7-[(2-hydroxy-2-methyl-propoxy)methyl]imidazo[1,2-a]pyridine-3-carboxamide]", "values": [{"measurement": "efflux ratio at 2 h, 2 μM", "setting": "[1]; Caco-2, pH 7.4", "value": 6.78}, {"measurement": "Papp A→B at 2 h, 2 μM", "setting": "[1]; pH 7.4, Caco-2, apical to basolateral", "value": 6.65, "unit": "×10⁻⁶ cm/s"}, {"measurement": "efflux ratio at 2.5 h, 2 μM", "setting": "[2]; MDCKII-MDR1", "value": 5.15}, {"measurement": "Papp A→B at 2.5 h, 2 μM", "setting": "[2]; MDCKII-MDR1, apical to basolateral", "value": 5.94, "unit": "×10⁻⁶ cm/s"}]}
